The test system of one assay is THF-ISRE cells. The assay is described as follows: THF luciferase activity, primary (initial) screen in THF-ISRE cells. It is filed as cell-based, human. The note with it: inducible luciferase reporter signalling upon IRF3 activation, compounds 50 μM to 0.391 μM, 18 hours, luminescence. The protocol: (§1) STING molecules were screened to determine human STING pathway specificity. THF-ISRE, THF-ISRE STING knock-out (KO), and THF-ISRE TRIF/MAVS KO cell lines contain an inducible luciferase reporter construct that will signal upon IRF3 activation. THF-ISRE STING KO cell line only has the TRIF/MAVS pathway to activate IRF3. THF-ISRE TRIF/MAVS KO cell line uses only the STING pathway for IRF3 activation. Luciferase activity was determined by measuring luminescence.
(§2) The three cell lines were maintained in T-75 flasks with DMEM/High Glucose (Cytiva™, Logan, UT), Pen/Strep/Glutamine (Hyclone™, Logan, UT), and 10% heat inactivated FBS (Hyclone™, Logan, UT).
(§3) For primary screening, THF-ISRE cells were plated at a density of 15,000 cells/well in opaque flat bottom 96-well tissue culture plates. Cells incubated for 36 hours and treated with DMSO (Sigma™, St. Louis, MO) formulated compounds. Before treatment, cell media was changed to 2% FBS in DMEM with antibiotics. Compounds were serially diluted 2-fold, starting at 50 μM and ending at 0.391 μM. Luciferase activity was measured after 18 hours by addition of Steady-Glo Luciferase Assay System (Promega™, Madison, WI) at a 1:1 ratio and luminescence read by plate reader.
Background: A reporter such as luciferase makes a cellular process visible.

For the next assay, the system named is human STING pathway. The assay is described as follows: THF luciferase activity, secondary screen in THF-ISRE TRIF/MAVS KO cells (STING only). It is filed as cell-based. The note with it: only the STING pathway for IRF3 activation. The protocol: as §1, §2, §3
The secondary screening used the same procedure as above with THF-ISRE STING KO and THF-ISRE TRIF/MAVS KO cells. If the compound was human STING specific, only THF-ISRE TRIF/MAVS KO cells would have luciferase activity.

Four molecules from US20260021107A1, “STIMULATOR OF INTERFERON GENES AGONISTS” (INIMMUNE CORP., priority 2022, published 2026) can be followed below.

With `O=C(NCc1c(F)cc(F)cc1F)c1ccc2c(c1)SCC(=O)N2Cc1c(O)cccc1F` [INI-3069], in the assay on THF-ISRE cells, the “luciferase activity (initial screen)” value is given as “positive luciferase activity”. Further, the “luciferase activity in TRIF/MAVS KO cells (STING pathway use)” value with human STING pathway was “use the STING pathway for luciferase activity”.
The like results for `COc1cccc(F)c1CN1C(=O)CSc2cc(C(=O)NCc3c(F)cc(F)cc3F)ccc21` [INI-3067] were, in that order, “positive luciferase activity” and “use the STING pathway for luciferase activity”.
As for `CC1Sc2cc(C(=O)NCc3ccco3)ccc2N(Cc2c(O)cccc2F)C1=O` (centres unmarked) [INI-3070], the “luciferase activity (initial screen)” value in the assay on THF-ISRE cells is given as “positive luciferase activity”. Further, in the assay on human STING pathway, the “luciferase activity in TRIF/MAVS KO cells (STING pathway use)” value is on record as “use the STING pathway for luciferase activity”.
On to `CC1Sc2cc(C(=O)NCc3c(F)cc(F)cc3F)ccc2N(Cc2c(O)cccc2F)C1=O` (centres unmarked) [INI-3071], for which the “luciferase activity (initial screen)” value in the assay with THF-ISRE cells is reported as “positive luciferase activity”. In addition, in the assay on human STING pathway, the “luciferase activity in TRIF/MAVS KO cells (STING pathway use)” value is listed as “use the STING pathway for luciferase activity”.
